Assay results reported in US20250213603A1, “PHARMACEUTICAL COMPOSITION FOR TREATING CANCER” (SAGA UNIVERSITY, priority 2021, published 2025).
“Also recorded” adds a separate entry of the source.

System: EGFP+Ba/F3 BCR-ABLWT cells
Assay: Survival extension in a BCR-ABL leukemia mouse model
Assay type: in vivo, nude mice
Details: 15 mM (249 mg/kg) FA-HP-β-CyD vs 150 mM (2086.5 mg/kg) HP-β-CyD, intraperitoneally twice a day for 20 days (FIG. 10)
Experimental: The effect due to FA-HP-β-CyD on the extension of survival in a BCR-ABL leukemia mouse model was evaluated as follows.
The FA-HP-β-CyD synthesized in Example 1 was used in this example.
EGFP+Ba/F3 BCR-ABLWT cells (1×10^6 cells) were transplanted into 6-week-old nude mice. Three days after transplantation, 200 μL vehicle (n=10), 150 mM (2086.5 mg/kg) HP-β-CyD (n=10), 15 mM (249 mg/kg) FA-HP-β-CyD (n=10), or […] (200 mg/kg) imatinib (n=10) was injected intraperitoneally twice a day for 20 days. The survival time was monitored daily. The survival data were analyzed using a log-rank nonparametric test and are reported as Kaplan-Meier survival curves.
Significant difference was determined as follows. That is, the data were analyzed using a two-sided Student's t-test without a comparison table. A value of P<0.05 was considered to indicate a significant difference.

“folic acid-appended hydroxypropyl-β-cyclodextrin [FA-HP-β-CyD]” was tested, and the survival time extension was “same survival time extension at one-tenth the amount of HP-β-CyD; also recorded: significant extension of the survival time”.
